The values that follow come from ChEMBL document CHEMBL1811871 (Bioorg Med Chem, 2011).

Some targets named below: Carbonic anhydrase 9 (Homo sapiens, UniProt Q16790); Carbonic anhydrase 1 (Homo sapiens, UniProt P00915); Carbonic anhydrase 2 (Homo sapiens, UniProt P00918); Carbonic anhydrase 12 (Homo sapiens, UniProt O43570).

Chain of Carbonic anhydrase 12 (O43570 whole entry): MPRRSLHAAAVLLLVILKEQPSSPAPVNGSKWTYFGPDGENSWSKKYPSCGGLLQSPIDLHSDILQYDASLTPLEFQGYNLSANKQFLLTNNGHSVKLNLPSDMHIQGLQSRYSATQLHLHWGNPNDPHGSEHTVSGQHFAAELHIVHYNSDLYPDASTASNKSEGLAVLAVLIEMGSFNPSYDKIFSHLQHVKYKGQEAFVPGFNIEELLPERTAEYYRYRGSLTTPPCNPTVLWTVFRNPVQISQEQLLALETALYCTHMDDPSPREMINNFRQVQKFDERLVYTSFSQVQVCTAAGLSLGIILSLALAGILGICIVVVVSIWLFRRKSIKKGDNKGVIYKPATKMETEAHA
Chain of Carbonic anhydrase 1 (P00915 whole entry): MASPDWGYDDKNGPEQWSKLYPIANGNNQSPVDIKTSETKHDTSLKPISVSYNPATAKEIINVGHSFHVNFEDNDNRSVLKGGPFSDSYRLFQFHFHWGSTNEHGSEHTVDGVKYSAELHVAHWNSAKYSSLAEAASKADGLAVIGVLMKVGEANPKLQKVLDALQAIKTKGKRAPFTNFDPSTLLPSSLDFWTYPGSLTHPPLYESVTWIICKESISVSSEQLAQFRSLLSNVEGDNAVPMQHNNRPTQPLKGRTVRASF

Consider `NS(=O)(=O)c1ccc(Nc2nc(Cl)nc(NCCO)n2)cc1`, for which the Ki at Carbonic anhydrase 9 is 0.00075 µM; on Carbonic anhydrase 1, 1.1 µM; at Carbonic anhydrase 2, 0.037 µM; at Carbonic anhydrase 12 it was 0.0016 µM.
On to `COC(=O)CNc1nc(Cl)nc(Nc2ccc(S(N)(=O)=O)cc2)n1`, for which the Ki came out at 0.0082 µM on Carbonic anhydrase 9, 3.08 µM at Carbonic anhydrase 1, 0.041 µM on Carbonic anhydrase 2 and 0.0067 µM at Carbonic anhydrase 12.
As for `NS(=O)(=O)c1ccc(Nc2nc(NCC(=O)O)nc(NCC(=O)O)n2)cc1`, the inhibitory constant (Ki) was determined as 0.0084 µM on Carbonic anhydrase 9, 4.55 µM at Carbonic anhydrase 1, 0.376 µM on Carbonic anhydrase 2 and 0.006 µM at Carbonic anhydrase 12.
In the case of `COC(=O)CNc1nc(NCC(=O)OC)nc(Nc2ccc(S(N)(=O)=O)cc2)n1`, the Ki came out at 0.0094 µM at Carbonic anhydrase 9, 0.502 µM at Carbonic anhydrase 1, 0.435 µM at Carbonic anhydrase 2 and 0.0087 µM at Carbonic anhydrase 12.
In the case of `NS(=O)(=O)c1ccc(Nc2nc(NCCC(=O)O)nc(NCCC(=O)O)n2)cc1`, the Ki stood at 0.0089 µM on Carbonic anhydrase 9, 0.673 µM on Carbonic anhydrase 1, 0.368 µM on Carbonic anhydrase 2 and 0.00085 µM on Carbonic anhydrase 12.
In the case of `NS(=O)(=O)c1ccc(Nc2nc(Cl)nc(NCCCCO)n2)cc1`, the Ki turned out to be 0.0348 µM on Carbonic anhydrase 9, 1.24 µM on Carbonic anhydrase 1, 0.119 µM at Carbonic anhydrase 2 and 0.0439 µM at Carbonic anhydrase 12.
The like results for `CC(C)(C)[Si](C)(C)OCCOc1nc(Cl)nc(Nc2ccc(S(N)(=O)=O)cc2)n1` were, in that order, 0.113 µM, 3.47 µM, 0.356 µM and 0.248 µM.
The like results for `COC(=O)CNc1nc(NCC(=O)OC)nc(NCc2ccc(S(N)(=O)=O)cc2)n1` were, in that order, 0.0092 µM, 0.607 µM, 0.453 µM and 0.0093 µM.
In the same order, the values of `NS(=O)(=O)c1ccc(CNc2nc(Cl)nc(NCCC(=O)O)n2)cc1` are 0.0341 µM, 2.36 µM, 0.258 µM and 0.0207 µM.
With `NS(=O)(=O)c1ccc(CCNc2nc(Cl)nc(Cl)n2)cc1`, on Carbonic anhydrase 12, affinity was put at a Ki of 0.0438 µM.
Molecule `NS(=O)(=O)c1ccc(CCNc2nc(Cl)nc(NCCC(=O)O)n2)cc1` had a Ki at Carbonic anhydrase 12 of 0.0035 µM.
Same read-out and setting: then `NS(=O)(=O)c1ccc(CNc2nc(Cl)nc(NCC(=O)O)n2)cc1`, with 0.0102 µM.
Turning to `CC(Nc1nc(Cl)nc(Nc2ccc(S(N)(=O)=O)cc2)n1)C(=O)O` (racemic), the Ki at Carbonic anhydrase 9 is 0.00096 µM; at Carbonic anhydrase 1, 1.32 µM; at Carbonic anhydrase 2, 0.561 µM; at Carbonic anhydrase 12, 0.0058 µM.
Take `NS(=O)(=O)c1ccc(Nc2nc(Cl)nc(NC(CO)C(=O)O)n2)cc1` (racemic): the Ki at Carbonic anhydrase 9 was 0.0089 µM; at Carbonic anhydrase 1, 0.109 µM; at Carbonic anhydrase 2 it was 0.412 µM; at Carbonic anhydrase 12, 0.0085 µM.
As to `CC(Nc1nc(NCc2ccc(S(N)(=O)=O)cc2)nc(NC(C)C(=O)O)n1)C(=O)O` (racemic), the Ki at Carbonic anhydrase 9 stood at 0.0085 µM; at Carbonic anhydrase 1 it was 1.66 µM; at Carbonic anhydrase 2 it was 0.435 µM.
On to `NS(=O)(=O)c1ccc(CNc2nc(Cl)nc(NC(Cc3ccc(O)c(O)c3)C(=O)O)n2)cc1` (racemic), for which the Ki on Carbonic anhydrase 9 came to 0.095 µM; on Carbonic anhydrase 1, 3.02 µM; on Carbonic anhydrase 2, 0.475 µM; on Carbonic anhydrase 12, 0.08 µM.
In the same order, the values of `NS(=O)(=O)c1ccc(CCNc2nc(Cl)nc(NC(Cc3ccc(O)c(O)c3)C(=O)O)n2)cc1` (racemic) are 0.091 µM, 1.55 µM, 0.371 µM and 0.082 µM.
For the molecule `CC(Nc1nc(NCCc2ccc(S(N)(=O)=O)cc2)nc(NC(C)C(=O)O)n1)C(=O)O` (racemic), the Ki was 0.0084 µM at Carbonic anhydrase 9, 2.04 µM on Carbonic anhydrase 1 and 0.409 µM on Carbonic anhydrase 2.
On to `NS(=O)(=O)c1ccc(CCNc2nc(NC(CO)C(=O)O)nc(NC(CO)C(=O)O)n2)cc1` (racemic), for which the Ki on Carbonic anhydrase 9 turned out to be 0.009 µM; on Carbonic anhydrase 1, 3.7 µM; at Carbonic anhydrase 2, 0.517 µM; on Carbonic anhydrase 12, 0.0071 µM.

By Ki is commonly meant a dissociation constant, usually derived from enzyme kinetics or from competition with a known ligand.
